# PMC10252837, “A Novel Time-Resolved Fluorescence Resonance Energy Transfer Assay for the Discovery of Small-Molecule Inhibitors of HIV-1 Tat-Regulated Transcription” (International Journal of Molecular Sciences, 2023)
# “Also recorded” adds a separate entry of the source.
# What was measured:
# [1] = test system: Tat activity (Tat-induced viral transcription); assay: microbe, parasite or virus in culture; format: cell-based, HIV-1
# Procedure: (§1) (A) (Upper panel) Doxycycline (Dox)-inducible Tat-expressing bl-DTR cells cultured in 96-well plates treated with two-fold serial dilutions of each compound in the presence of Dox (50 ng/mL). At 24 h after treatment, the activity of firefly luciferase (F-Luc), indicating Tat activity, was determined as described in the Materials and Methods section. (Bottom panel) TZM-bl cells were treated with two-fold serial dilutions of the indicated compound and then infected with the HIV-1NL4-3 strain at a multiplicity of infection (MOI) of 1. At 24 h after infection, the viral infectivity and cell viability were determined as described in the Materials and Methods section. […] (B) 2 × 10^5 TZM-bl cells growing in 6-well plates were infected with HIV-1 (MOI = 1), transfected with a Tat-expressing plasmid (2 μg) or treated with PMA ([…]) upon indicated compounds at indicated concentrations, respectively. At 24 h after treatment, LTR promoter activity was determined via a Bright-Glo Luciferase Assay Kit. The relative activities are represented as the mean ± SD (n = 3) compared with the DMSO vesicle. (C) The biotinylated TAR RNA (2 nM) was incubated with ARM peptide (100 nM) in the presence of increasing amounts of the hit compound and separated on a 3–12% native polyacrylamide gel. The mobility of biotinylated TAR RNA was detected by chemiluminescence.
# The inhibitory effect of hit compounds on Tat-mediated transcription was determined using doxycycline (Dox)-inducible Tat-expressing TZM-bl cells that express the LTR-driven firefly luciferase (F-Luc) gene under the control of Tat upon Dox treatment, as described previously but with minor modifications. In brief, 1 × 10^4 of the cells were cultured in 96-well plates, treated with compounds at a concentration of 10 µM (in the second round of screening), and then treated with Dox (final concentration: 50 ng/mL). After 24 h, the inhibitory effect of the hit compounds on Tat activity was determined by measuring F-Luc activity using a Bright-Glo Luciferase Assay Kit (Promega, Madison, WI, USA). For the dose–response assay, cells cultured in 100 μL medium were treated with 50 μL of 1:2 serially diluted compounds at concentrations ranging from 0 to 12.5 µM and then treated with 50 μL of Dox (final concentration: 50 ng/mL). At 24 h post-treatment, the F-Luc activity was determined as described above. All luminescence assays were carried out in a SpectraMax Paradigm Microplate Reader (Molecular Devices, San Jose, CA, USA), and the data were expressed as a relative percentage (%) compared to the DMSO control (vehicle) in the presence of Dox. The experiments were performed in triplicate.
# TZM-bl cells = assay: in vitro; conditions: human, 24 h
# Procedure: as §1
# (§2) To determine the inhibitory effect of hit compounds on HIV-1 infection, we used TZM-bl cells (also referred to as JC53BL-13), which express HIV-1 receptors and contain the LTR-driven F-Luc gene controlled by HIV-1 infection, as described previously but with some minor modifications. Briefly, 1 × 10^4 TZM-bl cells cultured on 96-well plates were treated in triplicate wells with 1:2 serially diluted compounds at concentrations ranging from 0 to 12.5 µM. […] At 24 h after infection, the inhibitory effect of the hit compounds on infectivity was determined using the Bright-Glo Luciferase Assay Kit (Promega). The dose–response data are expressed as a relative percentage compared to the DMSO control (vehicle). The inhibitory effects of the hit compounds on HIV-1 replication were determined as previously described. […] After infection, the cells were treated with hit compounds at the indicated concentrations at 3–5 days after treatment, and the inhibitory effect of hit compounds on viral replication was determined by the titration of virions from the cell supernatant using a p24 […]™ Assay Kit (PerkinElmer) according to the manufacturer’s instructions. Cell viability was determined using resazurin-based PrestoBlue™ cell viability reagent (Thermo Fisher Scientific, Waltham, MA, USA) according to the manufacturer’s instructions. […]
# in vitro = conditions: human
# Procedure: as §1, §2
# [2] = test system: peripheral blood mononuclear cells; assay: Cell viability in PBMCs (PrestoBlue); format: cell-based; conditions: primary PBMCs, 72 h
# Procedure: (§3) Figure 6 Phytohemagglutinin-preactivated peripheral blood mononuclear cells were infected with HIV-1NL4-3 (A) or HIV-1AD8 (B) at an MOI of 0.1 for 2 h and then treated with compounds at indicated concentrations for 72 h. […] The data are expressed as the mean ± SD (n = 3). * p < 0.05 indicates a comparison with the cells treated with DMSO (vehicle). ARVs, anti-retroviral drugs; EFV, efavirenz; DOL, dolutegravir; AZT, azidothymidine.
# (§4) The experiments were performed in triplicate.
# HIV-1NL4-3 = assay: HIV-1 infectivity in TZM-bl cells (LTR-driven F-Luc); format: cell-based; conditions: Human immunodeficiency virus 1, TZM-bl, 24 h, read-out: IC50 of Infectivity
# Procedure: as §1
# To determine the inhibitory effect of hit compounds on HIV-1 infection, we used TZM-bl cells (also referred to as JC53BL-13), which express HIV-1 receptors and contain the LTR-driven F-Luc gene controlled by HIV-1 infection, as described previously but with some minor modifications. Briefly, 1 × 10^4 TZM-bl cells cultured on 96-well plates were treated in triplicate wells with 1:2 serially diluted compounds at concentrations ranging from 0 to 12.5 µM. Subsequently, the cells were infected with HIV-1NL4-3 virus obtained from the transfection of 293T cells at a multiplicity of infection (MOI) of 1. At 24 h after infection, the inhibitory effect of the hit compounds on infectivity was determined using the Bright-Glo Luciferase Assay Kit (Promega). The dose–response data are expressed as a relative percentage compared to the DMSO control (vehicle). The inhibitory effects of the hit compounds on HIV-1 replication were determined as previously described. Briefly, 4 × 10^5 PBMCs pre-activated with phytohemagglutinin M (PHA-M) were washed with fresh media and then infected with HIV-1NL4-3 or HIV-1AD8 at an MOI of 0.1 by spinoculation for 2 h. After infection, the cells were treated with hit compounds at the indicated concentrations at 3–5 days after treatment, and the inhibitory effect of hit compounds on viral replication was determined by the titration of virions from the cell supernatant using a p24 […]™ Assay Kit (PerkinElmer) according to the manufacturer’s instructions. Cell viability was determined using resazurin-based PrestoBlue™ cell viability reagent (Thermo Fisher Scientific, Waltham, MA, USA) according to the manufacturer’s instructions. The data are presented as relative percentages compared to the DMSO control (vehicle). The experiments were performed in triplicate.
# TAR RNA = assay: RNA gel mobility shift assay (biotinylated TAR RNA and ARM peptide); format: binding, HIV-1; conditions: 2 nM biotinylated TAR RNA, 100 nM ARM peptide
# Procedure: To determine the inhibitory effect of hit compounds on the Tat (ARM)-TAR RNA interaction, a gel shift assay was carried out using the LightShift Chemiluminescent RNA EMSA Kit (Thermo Scientific) according to the manufacturer’s instructions, but with minor modifications suitable for our experiment. Briefly, 2 nM of 5′-biotinylated TAR RNA (nt 31) and 100 nM of ARM peptide were incubated with increasing amounts of hit compounds in the 1× REMSA binding buffer (10 mM HEPES pH 7.5, 10 mM MgCl2, 5 mM KCl, 1 mM DTT, and v/v 5 % glycerol) supplemented with 8 units/reaction of RNase OUT (Invitrogen) (final: 20 µL) at 20 °C for 20 min. Subsequently, the reaction was separated on a 3–12% native gradient PAGE gel. The RNA was then transferred to a nylon membrane to detect the mobility-shifted biotinylated TAR RNA using StAV-horseradish peroxidase conjugate. Chemiluminescence was detected using a GBox Chemi chemi-luminometer (Syngene, Fredrick, MD, USA).
# HIV-1NL4-3 (X4-tropic) = assay: HIV-1 replication assay in PBMCs (p24), HIV-1NL4-3; format: cell-based; conditions: PHA-preactivated PBMCs, MOI 0.1, 72 h; 460-G06 at 12.5-100 nM
# Procedure: as §3, §4
# HIV-1AD8 (R5-tropic) = assay: HIV-1 replication assay in PBMCs (p24), HIV-1AD8; format: cell-based; conditions: PHA-preactivated PBMCs, MOI 0.1, 72 h; 460-G06 at 12.5-100 nM
# Procedure: as §3, §4
structure (smiles),measurement,setting,value
"CN1C/C=C/CCOc2cccc(c2)-c2ccnc(n2)Nc2cccc(c2)C1 [Hit 460-G06, (E)-6-methyl-12-oxa-3,6-diaza-2(4,2)-pyrimidine-1,4(1,3)-dibenzenacyclododecaphan-8-ene]","dose response of Tat activity (F-Luc), in words","[1]; 0-12.5 μM, bl-DTR cells",gradual inhibition of F-Luc activity
same,IC50,"[1]; Human immunodeficiency virus 1, 24 h, read-out: IC50 of Tat Activity",11 ± 1 nM
same,concentration at which cytotoxicity is indicated,TZM-bl cells,over 0.1 μM
same,CC50 at 24 h,in vitro,4940 ± 440 nM
same,"cell viability / cytotoxicity in PBMCs, in words",[2],without a severe decrease in cell viability; also recorded: such cytotoxicity was not observed
same,IC50,HIV-1NL4-3,13 ± 3 nM
same,Kd,TAR RNA,132000 nM
same,"dissociation of ARM from TAR RNA, in words",TAR RNA,directly bound to the TAR RNA and efficiently dissociated the ARM from TAR RNA
same,"inhibition of viral replication, in words",HIV-1NL4-3 (X4-tropic),inhibited viral replication in a dose-dependent manner
same,"inhibition of viral replication, in words",HIV-1AD8 (R5-tropic),inhibited viral replication in a dose-dependent manner
